Results published in patent US6436980B1, “Peptidomimetic efflux pump inhibitors” (priority 1998, dated 2002).

Test system: Pseudomonas aeruginosa PAM1001
Assay: Checkerboard assay (broth microdilution): levofloxacin MIC in presence of efflux pump inhibitor
Type: cell-based
Procedure: Potentiation effect is observed by the reduction of the minimum inhibitory concentration of levofloxacin in the presence of the experimental efflux pump inhibitor. The activity of efflux pump inhibitors (EPI) in combination with fluoroquinolones, such as levofloxacin, is assessed by the checkerboard assay (Antimicrobial Combinations. In Antibiotics in Laboratory Medicine, Ed. Victor Lorian, M.D., Fourth edition, 1996, pp 333-338) using broth microdilution method performed as recommended by the NCCLS (National Committee for Clinical Laboratory Standards (NCCLS). 1997. Methods for Dilution of Antimicrobial Susceptibility Tests for Bacteria That Grow Aerobically—Fourth Edition; Approved Standard. NCCLS Document M7-A4, Vol 17 No.2). The test organism used is Pseudomonas aeruginosa PAM1001. […] The compounds tabulated below are representative of the described invention.
In this assay, multiple dilutions of two drugs, namely the EPI and levofloxacin, are being tested, alone and in combination, at concentrations equal to, above and below their respective minimal inhibitory concentrations (MICs). In the case of EPI, most of these compounds are devoid of intrinsic antimicrobial activity and are tested at the maximum concentration of 40 μg/mL. The MIC of levofloxacin against P. aeruginosa PAM1001 is 4 μg/mL.
The EPI tested are readily soluble in water and stock solutions are prepared at a final concentration of 2 mg/mL. Stock solutions are further diluted, according to the needs of a particular assay, in Mueller Hinton Broth (MHB). Stock solution can be stored at −80° C. Quinolones are solubilized according to the instructions of the manufacturers, at a concentration of 1 mg/mL. They are then further diluted in MB. Stock solution can be stored at −80° C.
The checkerboard assay is performed in microtiter plates. Levofloxacin is diluted in the x axis, each column containing a single concentration of levofloxacin. The EPI is diluted in the y axis, each row containing an equal concentration of EPI. The result of these manipulations is that each well of the microtiter plate contains a unique combination of concentrations of the two agents. Each EPI are tested independently.
The assay is performed in MHB with a final bacterial inoculum of 5×10^5 CFU/mL (from an early-log phase culture). Microtiter plates are incubated during 20 h at 35° C. and are read using a microtiterplate reader (Molecular Devices) at 650 nm as well as visual observation using a microtiter plate reading mirror.

Compound | Levofloxacin MIC Against P. aeruginosa PAM1001 in Presence of Efflux Pump Inhibitor (EPI), Minimum Inhibitory Concentration (EPI Conc. 0 μg/mL (levofloxacin alone)) | Levofloxacin MIC Against P. aeruginosa PAM1001 in Presence of Efflux Pump Inhibitor (EPI), Minimum Inhibitory Concentration (EPI Conc. 0.625 μg/mL) | Levofloxacin MIC Against P. aeruginosa PAM1001 in Presence of Efflux Pump Inhibitor (EPI), Minimum Inhibitory Concentration (EPI Conc. 1.25 μg/mL) | Levofloxacin MIC Against P. aeruginosa PAM1001 in Presence of Efflux Pump Inhibitor (EPI), Minimum Inhibitory Concentration (EPI Conc. 2.5 μg/mL) | Levofloxacin MIC Against P. aeruginosa PAM1001 in Presence of Efflux Pump Inhibitor (EPI), Minimum Inhibitory Concentration (EPI Conc. 5 μg/mL) | Levofloxacin MIC Against P. aeruginosa PAM1001 in Presence of Efflux Pump Inhibitor (EPI), Minimum Inhibitory Concentration (EPI Conc. 10 μg/mL) | Levofloxacin MIC Against P. aeruginosa PAM1001 in Presence of Efflux Pump Inhibitor (EPI), Minimum Inhibitory Concentration (EPI Conc. 20 μg/mL) | Levofloxacin MIC Against P. aeruginosa PAM1001 in Presence of Efflux Pump Inhibitor (EPI), Minimum Inhibitory Concentration (EPI Conc. 40 μg/mL) | MIC (Pseudomonas aeruginosa, PAM1001, read-out: MIC of levofloxacin against P. aeruginosa PAM1001)
NCCC[C@@H](N)C(=O)N[C@H](CCc1ccccc1)C(O)c1nc2ncccc2o1.O=C(O)C(F)(F)F (mixture of isomers) [Compound 36, (2R)-2,5-Diamino-N-[(1R)-1-[(RS)-(1-oxazolo[4,5-b]pyridin-2-yl)-hydroxymethyl]-3-phenylpropyl]valeramide Trifluoroacetate] | 4 µg/mL | 4 µg/mL | 4 µg/mL | 4 µg/mL | 4 µg/mL | 4 µg/mL | 2 µg/mL | 2 µg/mL | –
C[C@H]1COc2c(N3CCN(C)CC3)c(F)cc3c(=O)c(C(=O)O)cn1c23 [levofloxacin, reference compound] | – | – | – | – | – | – | – | – | 4 µg/mL
